# Tests used:
# Type in all cases: physicochemical
# [1] = Dynamic vapor sorption (DVS); settings: post-DVS XRPD
# Experimental: Approximately, 10 mg of sample was placed into a mesh vapor sorption balance pan and loaded into a DVS-1 dynamic vapor sorption balance by Surface Measurement Systems. The sample was subjected to a ramping profile from 40-90% relative humidity (RH) at 10% increments, maintaining the sample at each step until a stable weight had been achieved (99.5% step completion). After completion of the sorption cycle, the sample was dried using the same procedure to 0% RH and then a second sorption cycle back to 40% RH. The weight change during the sorption/desorption cycles were plotted, allowing for the hygroscopic nature of the sample to be determined. XRPD analysis was then carried out on any solid retained.
# [2] = Thermodynamic solubility of prepared salts
# Experimental: Thermodynamic solubility studies were carried out as follows: 10 mg of prepared salts were suspended in pH 1, 4.5, 6.8 and un-buffered water (300 μL). The pH of the slurries was measured and adjusted accordingly using either 0.2M HCl solution or 0.2M sodium hydroxide solution. The slurries were agitated for 24 hours at ambient temperature using an incubator shaker.
# [3] = 1-week stability tests (40° C./75% RH, 80° C., ambient light), XRPD and UPLC
# Text: Compound 1 (Form I) was subjected to various different environmental conditions to assess stability.
# [4] = Salt disproportionation studies; settings: deionized water, 24 h at ambient temperature
# Experimental: Salt disproportionation studies were carried out as follows: 20 mg of prepared salts were weighed into a vial and 0.5 mL of deionized water was added. The samples were then agitated for 24 h at ambient temperature. The pH of the samples was taken pre- and post-agitation. Any solids recovered were submitted for XRPD analysis to determine any changes to form.
# [5] = Hydration screen in acetone/water mixtures; settings: 24 hr
# Experimental: Hydration screen was carried out as follows: 10 mg of prepared salts were suspended in several acetone/water mixtures of various water activities (low: aw=0.281, medium: aw=0.776 and high: aw=0.919) and agitated at ambient temperatures for 24 hr. Any recovered solids were submitted for XRPD analysis to determine any changes to form.
# [6] = Gravimetric vapor sorption (GVS)
# Experimental: Approximately 10-20 mg of sample was placed into a mesh vapor sorption balance pan and loaded into an IGASorp Moisture Sorption Analyzer balance by Hiden Analytical. […] After completion of the sorption cycle, the sample was dried using the same procedure to 0% RH, and finally taken back to the starting point of 40% RH. The weight change during the sorption/desorption cycles were plotted, allowing for the hygroscopic nature of the sample to be determined.
# [7] = medium water activity (aw=0.776)
Structure (SMILES),Thermodynamic solubility in words ([2]; pH 1),Solid recovered from thermodynamic solubility slurry (XRPD) ([2]; pH 4.5),Thermodynamic solubility in words ([2]; pH 4.5),Solid recovered from thermodynamic solubility slurry (XRPD) ([2]; pH 6.8),Thermodynamic solubility in words ([2]; pH 6.8),Solid recovered from thermodynamic solubility slurry (XRPD) ([2]; unbuffered water),Thermodynamic solubility in words ([2]; unbuffered water),1-week stability test: change in purity (UPLC) ([3]; 40° C./75% RH),1-week stability test: change in purity (UPLC) ([3]; 80° C.),1-week stability test: change in purity (UPLC) ([3]; ambient light),Salt disproportionation: recovered material by XRPD [4],Hydration study: recovered solid by XRPD ([5]; high water activity (aw=0.919)),Hydration study: recovered solid by XRPD ([5]; low water activity (aw=0.281)),"Hydration study: recovered solid by XRPD [5, 7]",further results
C[C@@H]1CCc2ncc(F)cc2[C@H]2CCCN2c2ccn3ncc(c3n2)C(=O)N1.O=C(O)CC(O)(CC(=O)O)C(=O)O [Compound 1 citrate],high solubility,Compound 1 citrate,lower solubility,poorly crystalline free base,lower solubility,Compound 1 citrate,highly soluble,no change to purity,no change to purity,no change to purity,poorly crystalline citrate salt,poorly crystalline citrate salt,poorly crystalline citrate salt,unknown form,Crystalline form by XRPD after exposure to DVS humidity conditions [1]: no changes in crystalline form; Solid recovered from thermodynamic solubility slurry (XRPD) ([2]; pH 1): poorly crystalline solids; 1-week stability test: change to form (XRPD) ([3]; 40° C./75% RH): no change to form; 1-week stability test: change to form (XRPD) ([3]; 80° C.): no change to form; 1-week stability test: change to form (XRPD) ([3]; ambient light): no change to form
CS(=O)(=O)O.C[C@@H]1CCc2ncc(F)cc2[C@H]2CCCN2c2ccn3ncc(c3n2)C(=O)N1 [Compound 1 mesylate],moderately soluble,mesylate salt,moderately soluble,free base,low solubility,free base,moderately soluble,no change to purity,no change to purity,no change to purity,no change to form,free base,a mixture of free base and salt,mesylate salt,"Hygroscopicity, mass uptake by GVS ([6]; at 90% RH): about 32%; Crystalline form by XRPD after exposure to GVS humidity conditions ([6]; post-GVS XRPD): desolvate and become the mesylate form seen in the salt screen"

# Reference: patent publication US11091486B2, “Process for the preparation of pyrazolo[1,5-a]pyrimidines and salts thereof” (Array BioPharma Inc., priority 2016, dated 2021)
